Source: EP4385508A1, “FURAN FATTY ACIDS FOR ENHANCING MUSCLE MASS” (Centre de Coopération Internationale en Recherche …, priority 2022, dated 2024)

Tests used:
LC3-II/LC3-I = assay: Autophagic flux, conversion of LC3-I to LC3-II by Western blot in C2C12 myotubes; format: cell-based, Mouse; details: whatever the dose
Procedure: Mouse myoblasts of the C2C12 cell line (ATCC) were seeded at a plating density of 7000 cells/cm2 in 6-well plates. They were grown in DMEM high glucose (4.5g/l) supplemented with gentamycin (50 µg/mL), amphotericin (50 µg/mL), and fetal calf serum (10%). Terminal differentiation was induced at cell confluence by lowering the medium serum concentration (0.5%).
When indicated, FuFA-F2 was added to the culture medium at the indicated concentration. For the differentiation studies, FuFA-F2 was added at the confluence at the same time as the change in media condition. Three doses of FuFA-F2 were studied at a final concentration of 1, 10, or 50 µM. Human insulin was used at a concentration of 100 nM.
Protein levels were assessed by Western blotting. Total proteins were measured using the Bio-Rad protein assay (Hercules, CA, USA) according to the manufacturer's instructions. […]
AMP activated protein kinase (AMPK) is a crucial cellular energy sensor protein and is activated when intracellular ATP level decreases to regulate autophagy initiation (Hardie et al., 2012, Nat Rev Mol Cell Bio, Vol. 13 (4) : 251-262). […] The autophagy-related signaling was further evaluated by measuring the MTORC1 mediated phosphorylation […] at Ser757 which disrupts the interaction between ULK1 and AMPK. […] Therefore, the autophagic flux was assessed by measuring the conversion of LC3-I to LC3-II, through lipidation.

complex IV = assay: Mitochondrial complex IV activity in quadriceps of supplemented C57Bl6 mice; format: in vivo; details: 20mg/kg oral gavage, vs control
Procedure: Male C57Bl/6J wild-type mice were obtained from Janvier at 12 weeks of age and were randomly assigned to one of the two groups based on body weight. Mice were housed 2 per cage and maintained on a 12-hour light/dark cycle (lights on at 7:30 pm). Food and water were provided ad libitum. Enrichment (nesting cotton squares) was provided in each cage. Mice were treated once daily by oral gavage with vehicle (50% PEG-400, 0.5% Tween 80, and 49.5% distilled water) or FuFA-F2 (20 mg/kg). All animal experiments were performed according to European directives (86/609/CEE and 2010/63/CEE) and approved by the regional animal experimentation ethics committe: Région Languedoc-Roussillon (No36). […]
Mitochondrial respiratory complex activities were determined as previously described (Casas et al., 2008, PloS ONE, Vol. 3(6) : e2501). Citrate synthase (CS) activity was measured according to Srere (Srere et al., 1967, Science, Vol. 158(3803) : 936-937) by following the color formation of 5-thio-2-nitrobenzoic acid at 412 nm. The enzymatic activity of complex IV (cytochrome c oxidase) was measured according to Wharton and Tzagoloff (Wharton et al., 1967, Methods in Enzymology, Vol. 10, Edn Elsevier BV, Amsterdam, The Netherlands), a spectrophotometer following the oxidation of reduced cytochrome c at 550 nm, pH 7.4, and 37 °C. […]

**Q.** For CCCCCc1cc(C)c(CCCCCCCCC(=O)O)o1 [FuFA-F2], which “ratio of LC3-II/LC3-I” value (LC3-II/LC3-I) is on record?
**A.** decreased

**Q.** And the “complex IV activity of mitochondrial respiratory chain complexes” value (complex IV)?
**A.** significant increase
